Experimental data published in patent US20230123334A1, “AMINO LIPID COMPOUND, PREPARATION METHOD THEREFOR, AND APPLICATION THEREOF” (SHENZHEN SHENXIN BIOTECHNOLOGY CO., LTD., priority 2020, published 2023).

Experiments:
[1] = tested on: HEK293 cells; experiment: Preliminary screening as DNA vectors, GFP transfection of HEK293 cells; type: cell-based; settings: HEK293 cells; lipid/DOPE liposome with 75 ng plasmid DNA (psin-EGFP-IRES-Puro); number of cells expressing GFP divided by total number of nuclei (Hoechst)
Method in brief: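 First, amino lipid and DOPE were vortexed in sodium acetate buffer (pH 5.6) to form liposomes. Next, these were held with 75 ng EGFP plasmid at room temperature for 30 min. Finally, HEK293 cells were added, cultured at 37° C., Hoechst-stained, and GFP+/total nuclei scored by imaging.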

[2] = tested on: HEK293 cells; experiment: Preliminary screening as mRNA vectors, EGFP mRNA transfection of HEK293 cells; type: cell-based; settings: HEK293 cells, 96-well plates, EGFP mRNA 50 ng per well; percentage of GFP fluorescent cells relative to total number of cells (Hoechst)
Method in brief: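 Screening format: EGFP mRNA transfection (50 ng/well) into HEK293 in 10% FBS-supplemented DMEM. Percent green fluorescent cells, normalised to Hoechst nuclear count, gave the value; Lipofectamine2000 was the reference transfectant.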

Structure (SMILES) | Absolute DNA transfection efficiency in HEK293 cells [1] | Absolute mRNA transfection efficiency in HEK293 cells [2]
CCCCCCCNc1nc(NCCCCCCC)nc(NCCN2CCCCC2)n1 [Compound N7N7D4] | 0.0% | 0.0%
CCCCCCCCNc1nc(NCCCCCCCC)nc(NCCN2CCCCC2)n1 [Compound N8N8D4] | 0.0% | 0.2%
CCCCCCCCCCCCCCSc1nc(NCCCN2CCOCC2)nc(SCCCCCCCCCCC)n1 [Compound S11S14D8] | 8.8% | 4.2%
CCCCCCCCCCCCCCCCCCNc1nc(NCCCCCCC)nc(NCC2CCN(C)CC2)n1 [Compound N7N18D10] | 15.6% | 73.8%
CCCCCCCCCCCCCCCCCCSc1nc(NCCN(CC)CC)nc(SCCCCCCCCCCCC)n1 [Compound S12S18D7] | 0.7% | 0.0%
CCCCCCCCCCCCSc1nc(NCCCN2CCN(C)CC2)nc(SCCCCCCCCCCC)n1 [Compound S11S12D9] | 2.4% | 4.2%
CCCCCCCCCCCCCCCCCCNc1nc(NCCCCCCCCCCCC)nc(NCC2CCN(C)CC2)n1 [Compound N12N18D10] | 0.0% | 1.0%
CCCCCCCCCCCCCCCCCCSc1nc(NCCCN(C)C)nc(SCCCCCCCCCCCCCCCCCC)n1 [Compound S18S18D6] | 0.2% | 0.5%
CCCCCCCCCCCNc1nc(NCCCCCCCCC)nc(NCCCN2CCOCC2)n1 [Compound N9N11D8] | 0.0% | 0.4%
CCCCCCCCCCCCCCCCSc1nc(NCCN(C)C)nc(SCCCCCCCCCCCCCC)n1 [Compound S14S16D1] | 0.0% | 0.0%
CCCCCCCCCCCCCCCCCCNc1nc(NCCCCCC)nc(NCCCN2CCOCC2)n1 [Compound N6N18D8] | 0.3% | 0.0%
CCCCCCCCCCCCN(CCCCCCCCCCCC)c1nc(NCCCCCCC)nc(NCCN2CCN(C)CC2)n1 [N7^2N12D5] | 0.9% | 2.4%
CCCCCCCCCCSc1nc(NCCN2CCN(C)CC2)nc(SCCCCCCCCC)n1 [Compound S9S10D5] | 27.6% | 61.4%
CCCCCCCCCNc1nc(NCCCCCCC)nc(NCCN(C)C)n1 [Compound N7N9D1] | 0.6% | 0.0%
CCCCCCCCCCCCCNc1nc(NCCCCCCC)nc(NCCN2CCCCC2)n1 [Compound N7N13D4] | 0.0% | 0.3%
CCCCCCCCCCCCN(CCCCCCCCCCCC)c1nc(NCCCN2CCN(C)CC2)nc(N(CCCCCCCCCCCC)CCCCCCCCCCCC)n1 [2N12^2N12D9] | 0.2% | 0.0%
CCCCCCCCCCCCCNc1nc(NCCCCCCCCC)nc(NCCN2CCOCC2)n1 [Compound N9N13D2] | 0.0% | 0.6%
CCCCCCCCCCCCCCCCCCNc1nc(NCCCCCCCCCCCCC)nc(NCCN(CC)CC)n1 [Compound N13N18D7] | 3.7% | 1.3%
CCCCCCCCCSc1nc(NCCN(C)C)nc(SCCCCCCCCC)n1 [Compound S9S9D1] | 12.9% | 0.8%
CCCCCCCCCCCCCNc1nc(NCCCCCCCCCCCC)nc(NCCCN(C)C)n1 [Compound N12N13D6] | 0.5% | 1.0%
CCCCCCCCCCCCCCCSc1nc(NCCN(C)C)nc(SCCCCCCCCCCC)n1 [Compound S11S15D1] | 0.9% | 0.0%
CCCCCCCCNc1nc(NCCCCCC)nc(NCCN2CCCCC2)n1 [Compound N6N8D4] | 0.0% | 0.0%
CCCCCCCCCCCCCCCCNc1nc(NCCCCCC)nc(NCCCN2CCN(C)CC2)n1 [Compound N6N16D9] | 0.0% | 0.0%
CCCCCCCCCCCCCCCCCCSc1nc(NCCCN2CCN(C)CC2)nc(SCCCCCCCCCCCCCC)n1 [Compound S14S18D9] | 0.5% | 0.6%

Structure (SMILES) | Absolute DNA transfection efficiency in HEK293 cells [1] | Absolute mRNA transfection efficiency in HEK293 cells [2]
CCCCCCCCCCCCCNc1nc(NCCCCCCCCCCC)nc(NCCN2CCN(C)CC2)n1 [Compound N11N13D5] | 0.1% | 0.2%
CCCCCCCCNc1nc(NCCCCCC)nc(NCCN2CCN(C)CC2)n1 [Compound N6N8D5] | 0.0% | 0.0%
CCCCCCCCCCCCCCCCNc1nc(NCCCCCCCCCCCCCCCC)nc(NCCN2CCOCC2)n1 [Compound N16N16D2] | 0.2% | 0.0%
CCCCCCCCCCCCCCCCCCNc1nc(NCCCCCC)nc(NCCCN2CCN(C)CC2)n1 [Compound N6N18D9] | 0.1% | 0.2%
CCCCCCCNc1nc(NCCCCCCC)nc(NCCCN2CCOCC2)n1 [Compound N7N7D8] | 0.0% | 0.0%
CCCCCCCCCCCCCCCCCCNc1nc(NCCCCCCCC)nc(NCCCN2CCOCC2)n1 [Compound N8N18D8] | 1.3% | 2.8%
CCCCCCCCCCSc1nc(NCCN2CCN(C)CC2)nc(SCCCCCCCCCC)n1 [Compound S10S10D5] | 14.7% | 45.9%
CCCCCCCCCCSc1nc(NCCCN2CCN(C)CC2)nc(SCCCCCCCCC)n1 [Compound S9S10D9] | 34.1% | 46.6%
CCCCCCCCCCCCCNc1nc(NCCCCCCCCCCCCC)nc(NCCCN2CCN(C)CC2)n1 [Compound N13N13D9] | 1.1% | 0.2%
CCCCCCCCCCCCCCCCSc1nc(NCCN2CCCCC2)nc(SCCCCCCCC)n1 [Compound S8S16D4] | 10.2% | 2.1%
CCCCCCCCCCCCN(CCCCCCCCCCCC)c1nc(NCCCCCC)nc(NCCN(C)C)n1 [N6^2N12D1] | 0.6% | 0.0%
CCCCCCCCCNc1nc(NCCCCCC)nc(NCCN(C)C)n1 [Compound N6N9D1] | 0.0% | 0.0%
CCCCCCCCCCCCCCCCSc1nc(NCCCN2CCN(C)CC2)nc(SCCCCCCCCCCCCCC)n1 [Compound S14S16D9] | 0.0% | 0.0%
CCCCCCCCCCCCCCCNc1nc(NCCCCCCCCCCCCCCC)nc(NCC2CCN(C)CC2)n1 [Compound N15N15D10] | 1.1% | 4.2%
CCCCCCCCCCCCCCCCCCNc1nc(NCCCCCCCCCCCCCCCCCC)nc(NCCN2CCCCC2)n1 [Compound N18N18D4] | 0.9% | 0.0%
CCCCCCCCCNc1nc(NCCCCCCCCC)nc(NCCN2CCCC2)n1 [Compound N9N9D3] | 0.3% | 0.2%
CCCCCCCCCCCCCCSc1nc(NCCN2CCOCC2)nc(SCCCCCCCC)n1 [Compound S8S14D2] | 18.5% | 0.4%
CCCCCCCCCCCCCNc1nc(NCCCCCCCCC)nc(NCCN2CCCC2)n1 [Compound N9N13D3] | 1.0% | 4.6%
CCCCCCCCCCCCCCCNc1nc(NCCCCCCC)nc(NCCCN2CCOCC2)n1 [Compound N7N15D8] | 0.2% | 0.2%
CCCCCCCCCCCCSc1nc(NCC2CCN(C)CC2)nc(SCCCCCCCCCC)n1 [Compound S10S12D10] | 13.7% | 91.0%
CCCCCCCCCCCCCNc1nc(NCCCCCCCCCCCC)nc(NCCCN2CCN(C)CC2)n1 [Compound N12N13D9] | 0.3% | 1.8%
CCCCCCCCCCCCCCCCNc1nc(NCCN2CCOCC2)nc(N(CCCCCCCCCCCC)CCCCCCCCCCCC)n1 [N16^2N12D2] | 0.4% | 0.0%
CCCCCCCCCCCCCNc1nc(NCCCCCCCCCCC)nc(NCCN(CC)CC)n1 [Compound N11N13D7] | 0.5% | 0.9%
CCCCCCCCCCCCCCCSc1nc(NCCN2CCN(C)CC2)nc(SCCCCCCCCCC)n1 [Compound S10S15D5] | 3.7% | 9.4%
